{
  "source": "PubChem BioAssay (NCI)",
  "test_in_all_cases": "NCI tumour cell line growth inhibition, 48 h",
  "key": {"[1]": {"system": "COLO 205 colon"}, "[2]": {"system": "HOP-92 NSCLC"}, "[3]": {"system": "T-47D breast"}, "[4]": {"system": "KM12 colon"}, "[5]": {"system": "MALME-3M melanoma"}, "[6]": {"system": "DU-145 prostate"}, "[7]": {"system": "PC-3 prostate"}, "[8]": {"system": "MOLT-4 leukemia"}, "[9]": {"system": "OVCAR-4 ovarian"}, "[10]": {"system": "MCF7 breast"}, "[11]": {"system": "HS 578T breast"}, "[12]": {"system": "SF-268 CNS"}, "[13]": {"system": "SNB-75 CNS"}, "[14]": {"system": "SK-MEL-5 melanoma"}, "[15]": {"system": "OVCAR-5 ovarian"}, "[16]": {"system": "TK-10 renal"}, "[17]": {"system": "OVCAR-8 ovarian"}, "[18]": {"system": "K-562 leukemia"}, "[19]": {"system": "SW-620 colon"}, "[20]": {"system": "786-0 renal"}, "[21]": {"system": "MDA-MB-231 breast"}, "[22]": {"system": "RXF 393 renal"}, "[23]": {"system": "HCT-116 colon"}, "[24]": {"system": "SF-539 CNS"}, "[25]": {"system": "HOP-62 NSCLC"}, "[26]": {"system": "NCI-H23 lung"}, "[27]": {"system": "NCI/ADR-RES ovarian"}, "[28]": {"system": "SR leukemia"}, "[29]": {"system": "UACC-257 melanoma"}, "[30]": {"system": "A549 NSCLC"}, "[31]": {"system": "SF-295 CNS"}, "[32]": {"system": "MDA-MB-435"}, "[33]": {"system": "SK-OV-3 ovarian"}, "[34]": {"system": "U251 CNS"}, "[35]": {"system": "HL-60(TB) leukemia"}, "[36]": {"system": "NCI-H226 lung"}, "[37]": {"system": "OVCAR-3 ovarian"}, "[38]": {"system": "RPMI-8226 leukemia"}, "[39]": {"system": "SK-MEL-28 melanoma"}, "[40]": {"system": "UACC-62 melanoma"}, "[41]": {"system": "SN12C renal"}, "[42]": {"system": "HT29 colon"}, "[43]": {"system": "IGROV1 ovarian"}, "[44]": {"system": "NCI-H522 lung"}, "[45]": {"system": "ACHN renal"}, "[46]": {"system": "CCRF-CEM leukemia"}, "[47]": {"system": "SNB-19 CNS"}, "[48]": {"system": "M14 melanoma"}, "[49]": {"system": "BT-549 breast"}, "[50]": {"system": "NCI-H460 lung"}, "[51]": {"system": "HCT-15 colon"}, "[52]": {"system": "HCC-2998 colon"}},
  "note": "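Test compounds were applied to cells in 96-well plates for 48 hours at 5 doses. At the TGI there is no net growth.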",
  "data": [
    {"compound": "O=c1cc(-c2ccccc2)[nH]c2ccc(S)cc12", "values": [
      {"measurement": "TGI", "setting": "[1]", "value": "> 100", "unit": "µM"},
      {"measurement": "TGI", "setting": "[2]", "value": 91.5, "unit": "µM"},
      {"measurement": "TGI", "setting": "[3]", "value": 68, "unit": "µM"},
      {"measurement": "TGI", "setting": "[4]", "value": "> 100", "unit": "µM"},
      {"measurement": "TGI", "setting": "[5]", "value": 57.7, "unit": "µM"},
      {"measurement": "TGI", "setting": "[6]", "value": "> 100", "unit": "µM"},
      {"measurement": "TGI", "setting": "[7]", "value": "> 100", "unit": "µM"},
      {"measurement": "TGI", "setting": "[8]", "value": 39.8, "unit": "µM"},
      {"measurement": "TGI", "setting": "[9]", "value": "> 100", "unit": "µM"},
      {"measurement": "TGI", "setting": "[10]", "value": "> 100", "unit": "µM"},
      {"measurement": "TGI", "setting": "[11]", "value": "> 100", "unit": "µM"},
      {"measurement": "TGI", "setting": "[12]", "value": "> 100", "unit": "µM"},
      {"measurement": "TGI", "setting": "[13]", "value": 76.1, "unit": "µM"},
      {"measurement": "TGI", "setting": "[14]", "value": 29.5, "unit": "µM"},
      {"measurement": "TGI", "setting": "[15]", "value": "> 100", "unit": "µM"},
      {"measurement": "TGI", "setting": "[16]", "value": 79.6, "unit": "µM"},
      {"measurement": "TGI", "setting": "[17]", "value": "> 100", "unit": "µM"},
      {"measurement": "TGI", "setting": "[18]", "value": "> 100", "unit": "µM"},
      {"measurement": "TGI", "setting": "[19]", "value": "> 100", "unit": "µM"},
      {"measurement": "TGI", "setting": "[20]", "value": "> 100", "unit": "µM"},
      {"measurement": "TGI", "setting": "[21]", "value": "> 100", "unit": "µM"},
      {"measurement": "TGI", "setting": "[22]", "value": 68.2, "unit": "µM"},
      {"measurement": "TGI", "setting": "[23]", "value": 66.9, "unit": "µM"},
      {"measurement": "TGI", "setting": "[24]", "value": "> 100", "unit": "µM"},
      {"measurement": "TGI", "setting": "[25]", "value": "> 100", "unit": "µM"},
      {"measurement": "TGI", "setting": "[26]", "value": "> 100", "unit": "µM"},
      {"measurement": "TGI", "setting": "[27]", "value": 56.3, "unit": "µM"},
      {"measurement": "TGI", "setting": "[28]", "value": "> 100", "unit": "µM"},
      {"measurement": "TGI", "setting": "[29]", "value": "> 100", "unit": "µM"},
      {"measurement": "TGI", "setting": "[30]", "value": "> 100", "unit": "µM"},
      {"measurement": "TGI", "setting": "[31]", "value": "> 100", "unit": "µM"},
      {"measurement": "TGI", "setting": "[32]", "value": 45.4, "unit": "µM"},
      {"measurement": "TGI", "setting": "[33]", "value": "> 100", "unit": "µM"},
      {"measurement": "TGI", "setting": "[34]", "value": "> 100", "unit": "µM"},
      {"measurement": "TGI", "setting": "[35]", "value": "> 100", "unit": "µM"},
      {"measurement": "TGI", "setting": "[36]", "value": 81.9, "unit": "µM"},
      {"measurement": "TGI", "setting": "[37]", "value": "> 100", "unit": "µM"},
      {"measurement": "TGI", "setting": "[38]", "value": "> 100", "unit": "µM"},
      {"measurement": "TGI", "setting": "[39]", "value": 64.6, "unit": "µM"},
      {"measurement": "TGI", "setting": "[40]", "value": "> 100", "unit": "µM"},
      {"measurement": "TGI", "setting": "[41]", "value": 37, "unit": "µM"},
      {"measurement": "TGI", "setting": "[42]", "value": 93.1, "unit": "µM"},
      {"measurement": "TGI", "setting": "[43]", "value": "> 100", "unit": "µM"},
      {"measurement": "TGI", "setting": "[44]", "value": 64.5, "unit": "µM"},
      {"measurement": "TGI", "setting": "[45]", "value": 99.7, "unit": "µM"},
      {"measurement": "TGI", "setting": "[46]", "value": "> 100", "unit": "µM"},
      {"measurement": "TGI", "setting": "[47]", "value": "> 100", "unit": "µM"},
      {"measurement": "TGI", "setting": "[48]", "value": 84.8, "unit": "µM"},
      {"measurement": "TGI", "setting": "[49]", "value": 55.2, "unit": "µM"},
      {"measurement": "TGI", "setting": "[50]", "value": "> 100", "unit": "µM"},
      {"measurement": "TGI", "setting": "[51]", "value": 48, "unit": "µM"},
      {"measurement": "TGI", "setting": "[52]", "value": 51.9, "unit": "µM"}
    ]}
  ]
}
